Measurements reported in the CheMixHub viscosity set.

Assay: xn = mol fraction of the nth substance listed
Conditions: 103 kPa

C[Si]1(C)O[Si](C)(C)O[Si](C)(C)O[Si](C)(C)O1 + CCCCCCCCCC
viscosity [mPa·s]
Conditions	298.15 K	308.15 K	318.15 K
x1 = 0.05	0.844	0.733	0.645
x1 = 0.1	0.867	0.753	0.664
x1 = 0.1501	0.899	0.778	0.683
x1 = 0.2	0.931	0.801	0.703
x1 = 0.25	0.965	0.831	0.725
x1 = 0.3	1.007	0.865	0.753
x1 = 0.35	1.047	0.895	0.778
x1 = 0.3999	1.086	0.93	0.802
x1 = 0.45	1.134	0.964	0.833
x1 = 0.5	1.183	1.006	0.867
x1 = 0.5501	1.232	1.048	0.909
x1 = 0.6	1.292	1.097	0.943
x1 = 0.65	1.358	1.15	0.987
x1 = 0.6999	1.431	1.209	1.035
x1 = 0.75	1.511	1.273	1.087
x1 = 0.8	1.6	1.345	1.145
x1 = 0.85	1.699	1.423	1.208
x1 = 0.9	1.811	1.511	1.278
x1 = 0.95	1.936	1.61	1.356

C[Si]1(C)O[Si](C)(C)O[Si](C)(C)O[Si](C)(C)O1 + CCCCCCCCCCCC
viscosity [mPa·s]
Conditions	298.15 K	308.15 K	318.15 K
x1 = 0.05	1.314	1.107	0.951
x1 = 0.1	1.32	1.113	0.962
x1 = 0.15	1.342	1.132	0.972
x1 = 0.2	1.352	1.141	0.982
x1 = 0.25	1.366	1.153	0.991
x1 = 0.3	1.384	1.167	1
x1 = 0.35	1.402	1.183	1.012
x1 = 0.3999	1.431	1.202	1.028
x1 = 0.45	1.454	1.225	1.048
x1 = 0.5	1.489	1.251	1.068
x1 = 0.5501	1.517	1.278	1.089
x1 = 0.6	1.554	1.309	1.114
x1 = 0.65	1.6	1.345	1.142
x1 = 0.6999	1.643	1.38	1.173
x1 = 0.75	1.7	1.426	1.209
x1 = 0.7999	1.759	1.473	1.248
x1 = 0.85	1.828	1.523	1.292
x1 = 0.9	1.91	1.588	1.343
x1 = 0.95	1.985	1.652	1.39

C[Si]1(C)O[Si](C)(C)O[Si](C)(C)O[Si](C)(C)O1 + CCCCCCCCCCCCC
viscosity [mPa·s]
Conditions	298.15 K	308.15 K	318.15 K
x1 = 0.05	1.619	1.351	1.145
x1 = 0.1	1.61	1.343	1.139
x1 = 0.15	1.604	1.339	1.137
x1 = 0.2	1.602	1.338	1.134
x1 = 0.2501	1.604	1.346	1.136
x1 = 0.3	1.608	1.342	1.139
x1 = 0.35	1.614	1.345	1.143
x1 = 0.4	1.62	1.355	1.149
x1 = 0.45	1.636	1.366	1.159
x1 = 0.5	1.649	1.375	1.167
x1 = 0.55	1.667	1.389	1.177
x1 = 0.6	1.69	1.406	1.191
x1 = 0.65	1.715	1.43	1.209
x1 = 0.7	1.751	1.458	1.24
x1 = 0.75	1.794	1.498	1.269
x1 = 0.8	1.826	1.53	1.293
x1 = 0.85	1.89	1.572	1.328
x1 = 0.9	1.941	1.62	1.365
x1 = 0.95	1.996	1.659	1.405
